PubChem BioAssay AID463203 (Broad Institute, 2010)
The source made the active and inactive calls.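 Rule for the calls: active = more than half of replicate measurements showing over 20% loss of kinase signal relative to plate controls; inconclusive = some but at most half of replicates over 20% loss; inactive = no replicate over 20% signal loss.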

Molecular target: Glycogen synthase kinase-3 alpha (Homo sapiens) (UniProt P49840)
Assay: concentration-response blocking of human GSK3A – biochemical, luminescence, cell-free homogeneous, retest, dose response (AID 463203)
Conditions: GSK-3 alpha enzyme, ADP-Glo luminescence, 60 min

Chain of Glycogen synthase kinase-3 alpha (Homo sapiens) (P49840 whole entry, looked up): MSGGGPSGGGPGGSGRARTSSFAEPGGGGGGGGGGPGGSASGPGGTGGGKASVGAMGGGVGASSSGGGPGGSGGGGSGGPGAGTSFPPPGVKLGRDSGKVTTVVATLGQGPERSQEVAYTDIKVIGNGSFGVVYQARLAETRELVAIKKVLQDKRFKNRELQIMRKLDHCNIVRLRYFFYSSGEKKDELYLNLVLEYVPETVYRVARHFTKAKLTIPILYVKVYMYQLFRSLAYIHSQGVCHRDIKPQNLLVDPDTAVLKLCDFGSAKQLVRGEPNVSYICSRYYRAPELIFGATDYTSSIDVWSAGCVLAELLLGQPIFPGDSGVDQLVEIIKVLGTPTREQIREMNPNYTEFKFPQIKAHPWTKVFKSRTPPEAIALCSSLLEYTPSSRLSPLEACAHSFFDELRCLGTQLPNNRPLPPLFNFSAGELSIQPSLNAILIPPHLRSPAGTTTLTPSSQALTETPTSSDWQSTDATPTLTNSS

SMILES	AC50
Cc1ccc(-c2nc3n(n2)Cc2ccccc2-3)cc1	> 30 µM (inactive)
O=C(CSc1nc2ccccc2o1)Nc1nc2ccc(Br)cc2s1	> 30 µM (inactive)
Clc1ccccc1C1=Nn2c(nnc2-c2ccncc2)SC1	2.35 µM
Clc1ccc(-c2noc(COc3ccccc3)n2)cc1	> 30 µM (inactive)
Nc1ccc2c(c1)C(=O)c1ccccc1C2=O	> 30 µM (inactive)
CCC(=NCCCO)c1c(O)n(-c2ccc(OC)cc2)c(=O)[nH]c1=O	> 30 µM (inactive)
Cc1cccc(N(C)C(=O)C2CCCN2S(=O)(=O)c2cccc3nsnc23)c1 (stereo unspecified)	24.8 µM
O=C(CSc1ccc2nnc(-c3ccccc3)n2n1)N1CCCc2ccccc21	> 30 µM (inactive)
CCOc1cc2c(C#N)c(N3CCCC3)nc(N)c2c(N)n1	> 30 µM (inactive)
Cc1nnc(SCC(=O)Nc2sc3c(c2C(=O)c2ccccc2)CCCC3)s1	> 30 µM (inactive)
NC(=O)c1cc(Br)cc2c3c([nH]c12)CCCC3	9.98 µM
O=[N+]([O-])c1ccc(NCCCN2CCOCC2)c(Cl)c1	> 30 µM (inactive)
CSCCC1NC(=S)N(Cc2ccccc2)C1=O (stereo unspecified)	> 30 µM (inactive)
NC1=NC(=O)/C(=C\c2ccc(-c3ccc(Cl)cc3)o2)S1	1.4 µM
O=C(Nc1sc2c(c1C(=O)N1CCOCC1)CCCCC2)c1cccnc1	> 30 µM (inactive)
O=S(=O)(O)c1ccc(N=Nc2ccccc2)cc1	> 30 µM (inactive)
CC(=O)Nc1ccc(NC(=O)c2cc(-n3cnnc3)ccc2Cl)cc1	> 30 µM (inactive)
CC(=O)O[C@@H]1[C@@H](O)[C@@H](O)[C@H](Oc2c(-c3ccc(O)cc3)oc3c(CC=C(C)C)c(O)cc(O)c3c2=O)O[C@H]1C	14.4 µM
COc1ccc(C2CC(=O)N3CN(c4ccccc4F)CSC3=C2C#N)cc1OC (stereo unspecified)	> 30 µM (inactive)
CCC(C)Nc1nc(N)c([N+](=O)[O-])c(N2CCCCCC2)n1 (stereo unspecified)	10.9 µM
CCOc1ccc(-n2c(SCC(=O)Nc3ccccc3C)n[nH]c2=O)cc1	> 30 µM (inactive)

SMILES	AC50
Cc1ccc(S(=O)(=O)N2CCN(CC(=O)N/N=C\c3ccccn3)CC2)cc1	> 30 µM (inactive)
Cc1cccc(C)c1OCC(=O)Nc1ccc2c(c1)C(=O)NC2=O	22.5 µM
S=c1[nH]nc(-c2cc3c(s2)-c2ccccc2CC3)o1	22.9 µM
O=C(Nc1ccccc1-c1nnc(SCc2ccccc2)o1)c1ccccc1	> 30 µM (inactive)
CCc1c(C)sc(NC(=O)C2CC2c2ccccc2)c1C(N)=O (stereo unspecified)	> 30 µM (inactive)
CCOc1ccc2nnc(-c3ccc(Br)cc3)n2n1	> 30 µM (inactive)
O=[N+]([O-])c1ccc(NCCCN2CCOCC2)c([N+](=O)[O-])c1	> 30 µM (inactive)
COc1cc(/C=N/NC(=O)c2cccnc2)cc(Br)c1O	> 30 µM (inactive)
Nc1ccc2nc(C3CCCCC3)[nH]c2c1	> 30 µM (inactive)
CCCc1cc(NCc2ccccn2)n2c(nc3ccccc32)c1C#N	> 30 µM (inactive)
CCCNC(=O)NC(C(=O)OC)C12CC3CC(CC(C3)C1)C2 (stereo unspecified)	> 30 µM (inactive)
COc1ccc(CNC(=O)CN(CC2CCCO2)C(=O)CNS(=O)(=O)c2ccccc2)cc1 (stereo unspecified)	> 30 µM (inactive)
CCOC(=O)c1cnc2c(C(F)(F)F)cccc2c1N1CCN(C)CC1	> 30 µM (inactive)
O=[N+]([O-])c1cccc(-c2ccn[nH]2)c1	> 30 µM (inactive)
O=C(CSCc1ccc([N+](=O)[O-])cc1)N/N=C/c1cccnc1	> 30 µM (inactive)
COC(=O)c1c(NC(=O)CN2C(=O)NC3(CCC(C(C)(C)C)CC3)C2=O)sc2c1CCCCC2 (stereo unspecified)	> 30 µM (inactive)
Cc1ccc(C2C3=C(CCCC3=O)Nc3c2c(C)nn3-c2ccccn2)o1 (stereo unspecified)	> 30 µM (inactive)
COc1cccc(/C=C2\SC(=O)NC2=O)c1OCc1ccc(C(=O)O)cc1	26.9 µM
Cc1ccc(S(=O)(=O)c2c(C(=O)c3ccccc3)cnc3cc4c(cc23)OCCO4)cc1	> 30 µM (inactive)
Cc1cccc(N(CC(O)CN2CCCC2)S(=O)(=O)c2ccccc2)c1 (stereo unspecified)	> 30 µM (inactive)
